Results reported in patent publication US20260272801A1, “BIOCATALYTIC SYNTHESIS OF UNNATURAL MYCOSPORINE-LIKE AMINO ACIDS” (University of Florida Research Foundation, Incorporated, priority 2022, published 2026).
Entries after “also recorded” stand apart in the source; their conditions may differ.

Columns and labels:
MysD = assay: In vitro MysD reaction with amino acid substrates (LC-HRMS detection of MAA products); format: biochemical, Nostoc linckia NIES-25; conditions: 5 mM amino acid, 50 uM mycosporine-glycine, 5 mM ATP, 0.5 uM MysD, pH 8.0, room temperature, 4 hours
Experimental: The reaction solution contained 50 mM HEPES, pH 8.0, 10 mM MgCl2, 50 uM mycosporine-glycine (MG), 5 mM amino acid substrates, and 5 mM ATP. The reactions were initiated by adding 0.5 uM MysD and then carried out at room temperature for 4 hours. The reactions were then terminated and centrifuged.
In Vitro MysD Reactions. MG was purified from extracts of E. coli expressing MysAB2C by HPLC and used as the substrate for the MysD reactions. The quality of MG was calculated based on its extinction coefficient (28,100 M^−1cm^−1). The MysD reactions included MG (50 μM), Mg^2+ (10 mM), unnatural amino acid substrates (5 mM), and ATP (5 mM) in 50 mM HEPES, pH 8.0. The reactions were initiated by adding MysD (0.5 μM) and then incubated at room temperature for 4 hours. All reactions were quenched by heat inactivation at 95° C. for 10 min. After centrifugation at 20,000×g for 15 min, the clear supernatants were collected for LC-HRMS analysis.
The reactions were terminated and then analyzed in the HPLC and/or LC-MS analysis.
HPLC and LC-MS Analysis. Samples were analyzed on a Shimadzu Prominence UHPLC system (Kyoto, Japan) coupled with a PDA detector. Unless stated elsewhere, the following HPLC procedure was performed. The compounds were separated on a Phenomenex Luna C8 column (4.6×250 mm, 5 μm) using the following HPLC program: 2% B for 15 min, 2-90% B gradient in 2 min, 90% B in 2 min, 90-2% in 2 min, and re-equilibration in 2% B for 6 min. The A phase was water with 0.1% formic acid and the B phase was methanol. The flow rate was set at 0.5 mL/min. LC-HRMS and HRMS/MS experiments were conducted on a Thermo Scientific Q Exactive Focus mass spectrometer with a Dionex Ultimate RSLC 3000 uHPLC system, equipped with the H-ESI II probe on an Ion Max API Source. Methanol (B)/water (A) containing 0.1% formic acid were used as mobile phases. The eluents from the first 3 min were diverted to waste by a diverting valve. MS1 signals were acquired under the Full MS positive ion mode, covering a mass range of m/z 150-2000, with resolution at 35 000 and AGC target at 1×10^6.

[1] = cited from earlier work

| Compound | use as amino acid substrate by MysD to produce MAA products (MysD) | further results |
| --- | --- | --- |
| NC[C@@H](N)C(=O)O [(R)-2,3-diaminopropionic acid] | not able to take |  |
| NC[C@H](N)C(=O)O [(S)-2,3-diaminopropionic acid] | could be used by MysD |  |
| C=C[C@H](N)C(=O)O [(S)-2-aminobut-3-enoic acid] | could be used by MysD |  |
| C[C@@H](O)[C@H](N)C(=O)O [L-threonine] | could be used by MysD; also recorded: best substrate |  |
| COC1=C(NCC(=O)O)C[C@@](O)(CO)CC1=O [MG, mycosporine-glycine] |  | extinction coefficient ([1]; used to calculate the quantity of MG): 28,100 M^−1cm^−1 |
| COC1=C(NCC(=O)O)C[C@@](O)(CO)CC1=N[C@H](C(=O)O)[C@@H](C)O [porphyra-334] |  | maximal absorption wavelength ([1]; natural MAA given as comparison value): 334 nm |
